Measured values taken from PMC9818021, “Targets, Mechanisms and Cytotoxicity of Half-Sandwich Ir(III) Complexes Are Modulated by Structural Modifications on the Benzazole Ancillary Ligand” (Cancers, 2022).

Experiments:
BALB/c mice = assay: Biodistribution (ICP-MS of organs); type: in vivo, mouse; conditions: 4 h after i.v. injection
Experimental: Biodistribution studies: BALB/c mice were injected via the tail vein with 100 µL of 1[C,NH] dissolved in PBS. Then, 4 h after the injection, the animals (n = 3) were sacrificed, and the following organs were removed: kidney, spleen, liver, heart, lung, pancreas, intestine, ovary and stomach. They were kept at −80 °C until their analysis at the Cactus-Lugo Instrumental Analysis Unit. Solutions were diluted to a final volume of 10 mL MilliQ water and measured on an Agilent 7700x-ICP-MS.

[1] = Drug uptake by cells (ICP-MS); type: cell-based; conditions: 16 μM, 400,000 cells, 4 h
Experimental: 1[C,NH] reduced the lung tumor burden. Prior the performance of in vivo studies, the drug uptake was determined. The amount of 1[C,NH] entering the cell was estimated after administration of 16 μM of 1[C,NH] to 400,000 cells. The intracellular iridium content was assessed after 4 h by ICP-MS, and the percentage of drug taken up by cells was 1.7%. Then, acute toxicity and bio distribution of 1[C,NH] was studied in healthy mice (BALB/c). […] Antitumor efficacy was studied using an orthotopic model of lung cancer in nude mice (Figure 8B). A549-luc cells (A549 cells marked with luciferase) were used to induce the tumor and 20 days after the injection of cells, we proceeded to the administration of 4 doses (0.9 mg/kg) of 1[C,NH] on alternate days. […] However, we cannot exclude the appearance of toxic effects after repeated administrations over longer periods of time. […] To differentiate the effect of 1[C,NH] on the primary tumor and on the affected nodes, at day 37, the animals were sacrificed, and luciferase activity, as a marker on the presence of tumor cells, was measured. […] Moreover, lung mice were stained with a monoclonal antibody against a human cytokeratin (only A549 tumor cells of human origin were stained) (Figure 8D). […] In addition, other factors influence the efficacy of a drug on the primary tumor and not on the metastasis, cell-cell interactions, matrix in the nodes, etc. […]

A549 cells = assay: Cell cycle analysis by flow cytometry; type: cell-based, human; conditions: 8 µM, 24 h, PI staining
Experimental: DNA damage was measured using EpiQuik 8-OHdG DNA Damage Quantification Direct Kit (colorimetric) (Fischer, Waltham, MA, USA, P600396); The mitochondrial cytochrome C release was evaluated using the “Millipore’s FlowCellect Cytochrome C Kit (Millipore, FCCH100110)”. Lactate dehydrogenase activity release was measured in the culture medium using Cytotoxicity Detection Kit (Roche Diagnostic, Barcelona, Spain, 11 644 793 001). Protein synthesis was determined using Click-iT Plus O-propargyl-puromycin (OPP) Protein Synthesis Assay Kit (Invitrogen™, Waltham, MA, USA). Measurement of GSH/GSSG was determined with GSH/GSSG-Glo Assay (Promega, V6611). Measurements of OCR and ECAR with Seahorse XFp (Agilent Technologies) were determined using the XFp Cell Mito Stress Test Kit (103010-100) and XFp Glycolysis Stress Test Kit (103017-100). ATP measurement was determined with Cell Titer-Glo Luminescent Cell Viability Assay (Promega, Madison, WI, USA, G7570). Determination of DNA damage using phosphorylated H2AX measurement were performed as previously described. Cardiolipin oxidation using the fluorophore Nonyl Acridine Orange (NAO, Thermo Scientific, A1372) was performed as described. Cell viability was determined by Hoechst inclusion and Propidium iodide (PI) exclusion by standard protocols. TEM analysis were performed as described. […]

SW480 cells = assay: Ir cellular uptake by ICP-MS; type: cell-based, human; conditions: 2 µM, 24 h
Experimental: Quantification of Ir cellular uptake by ICP-MS (Inductively coupled plasma-mass spectrometry). Metal accumulation studies were conducted on the SW480 cell line. In these experiments, 3 × 10^5 cells were seeded in 12.5 cm^2 tissue culture flasks in drug-free medium and incubated for 24h at 37 °C in a 5% CO2 humidified atmosphere. Then, cells were treated with 2 µM of the iridium complexes. After 24 h of exposure, cells were washed twice with PBS and harvested. The pellets were resuspended in PBS, and 10 µL were used to count cells. Then, each resuspended pellet was digested in 65% HNO3 for 24 h. Finally, solutions were analyzed in a 7700 ICP-MS (Agilent Technologies, Palo Alto, CA, USA). Data is reported as the mean the standard deviation (n = 3).

Cc1c(C)c(C)[c-](C)c1C.[Cl][Ir]1[c]2ccccc2-c2[nH]c3ccccc3[n+]21 [1[C,NH], [(η^5-Cp*)IrCl(κ^2-N,C-pbim)]]
Tissues with the highest accumulation (BALB/c mice): liver, kidneys and lungs
Percentage of drug taken up by cells [1]: 1.7%
Cell cycle distribution (A549 cells): percentage of cells in G0/G1 phase increased and cells in G2/M phase decreased

Cc1c(C)c(C)[c-](C)c1C.[Cl][Ir]1[O]c2ccccc2-c2sc3ccccc3[n+]21 [8[CO,S], [(η^5-Cp*)IrCl(κ^2-O,N-hpbtz)]]
Metal accumulation in SW480 cells (SW480 cells): highest accumulation
